Assay results from patent US9056923B2, “Mimetic peptides derived from collagen type IV and their use for treating angiogenesis- and lymphagiogenesis-dependent diseases” (THE JOHNS HOPKINS UNIVERSITY, priority 2010, dated 2015).
Read-outs that look alike come from different tables or passages of the source. Square brackets hold non-standard residues; d marks the D form. Ends that are not written are not given here. Peptide text beside a SMILES is read from it. Abu = CC[C@H](N)C(=O)O

Key:
[1] = test system: choroidal neovascularization; test: Laser-induced choroidal neovascularization model; type: in vivo, C57BL/6 mice; conditions: 0.1 μg into a mouse eye
Method: The ocular laser-induced choroidal neovascularization (NV) model of wet age-related macular degeneration was used for testing. 5-6-week-old female pathogen-free C57BL/6 mice were anesthetized with ketamine hydrochloride (100 mg/kg body weight) and pupils were dilated. Laser photocoagulation (75-μm spot size, 0.1-sec duration, 120 mW) was performed in the 9, 12, and 3 o'clock positions of the posterior pole of each eye with the slit lamp delivery system of an OcuLight GL diode laser (Iridex, Mountain View, Calif.) and a handheld cover slip as a contact lens to view the retina. Production of a tissue bubble by the laser, which indicates rupture of Bruch's membrane, is an important factor in obtaining choroidal NV; therefore, only burns in which a bubble is produced are included in the study. […] At day 7 the mice that received the naked peptides were dosed again whereas the mice that received the particles were administered PBS. Intravitreous injections were done under a dissecting microscope with a Harvard Pump Microinjection System and pulled glass micropipettes. After 14 days, the mice were perfused with 1 mL of PBS containing 50 mg/mL of fluorescein-labeled dextran (2×10^6 Daltons average molecular weight; Sigma-Aldrich, St. Louis, Mo.) and choroidal flat mounts were examined by fluorescence microscopy. Images were captured with a Nikon Digital Still Camera DXM1200 (Nikon Instruments Inc., New York, N.Y.). Image analysis software (Image-Pro Plus; Media Cybernetics, Silver Spring, Md.) was used to measure the total area of choroidal NV at each rupture site with the investigator masked with respect to treatment group.

HUVEC [2] = type: cell-based, human; conditions: for IC50: 3 h; for Activity in Adhesion: Yes/No summary, active = inhibitory potential greater than 30%
Summary of the method: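 Adhesion of 25,000 cells per well, with or without peptide, followed by real-time electrical impedance on electrode plates over 3 hours. At least two independent replicates, each run in duplicate.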

[3] = test system: VEGF mediated retinal neovascularization; test: Rho/VEGF transgenic mice model of retinal neovascularization; type: in vivo; conditions: for area of retinal neovascularization in the Rho/VEGF model: 0.1 μg into a mouse eye
Method: The ocular Rho/VEGF transgenic mice model of wet age-related macular degeneration also was used to test some of the peptides. Transgenic mice in which the rhodopsin promoter drives expression of VEGF in photoreceptors have the onset of VEGF production at P7 and develop extensive NV along the outer surface of the retina by P21 (Okamoto et al., 1997; To be et al., 1998). Mice hemizygous for the transgene (n=15 for each dose) were given an intraocular injection of 1 μl of PBS containing 0.01, 0.1, or 1 μg of peptide or scramble peptide in one eye at P7 and P14 and at P21 the mice were anesthetized, perfused with fluorescein-labeled dextran, and the total area of neovascularization on the outer surface of the retina was measured on retinal flat mounts by image analysis as above.

HUVEC [4] = type: cell-based, human; conditions: for Activity in Proliferation: Yes/No summary
Summary of the method: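 HUVEC plated at 2000 cells/well overnight, then exposed to peptides in fully supplemented medium for three days. WST-1 added in serum-free EBM-2 for four hours and absorbance read at 450 nm. Percent live cells taken relative to untreated cells in complete medium with 0.2% DMSO.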

HUVEC [5] = test: HUVEC migration assay (RT-CIM); type: cell-based, human; conditions: for Activity in Migration: Yes/No summary, active = inhibitory potential greater than 30%
Summary of the method: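 Real-time impedance (RT-CIM) transwell migration through fibronectin-coated (20 μg/mL) 8 μm membranes; 45,000 cells/well in serum-free medium ± peptides, fully supplemented EBM-2 as chemoattractant below. Cell index recorded over 20 h at 37 °C; ≥2 independent replicates, each in duplicate.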

HUVEC [6] = test: HUVEC tube formation assay on Matrigel; type: cell-based, human; conditions: for Activity in Tube formation: Yes/No summary
Summary of the method: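 HUVEC (15,000/well) plated on polymerized Matrigel in complete media with or without peptide for 19 h at 37 °C. Tube networks imaged by microscopy, one random field per well, in triplicate wells across at least two independent experiments.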

[7] = test system: MDA-MB-231 breast cancer cells; test: MDA-MB-231 adhesion assay; type: cell-based
Method: (§1) Similar to the migration assays, the inhibition activity of the peptide in cellular adhesion was assessed using the RT-CIM technology. In this case, 25,000 cells/well were plated in 16 wells E-plates (Roche, Basel Switzerland) in the presence or absence of the peptide. The adhesion was monitored over time (3 hours) by measuring changes in the electrical impedance, which is a direct measure of the cells adhering on the electrodes. […] Assays were performed in at least two independent replicates and each replicate was performed using two experimental duplicates.

[8] = test system: lymphatic endothelial cells (LEC); test: LEC adhesion assay; type: cell-based
Method: as §1

[9] = test system: microvascular endothelial cells (MEC); test: MEC migration assay; type: cell-based
Method: (§2) The inhibitory potential of the peptides was measured using a real time migration assay system based on electrical impedance (RT-CIM, ACEA Biosciences, CA). CIM 16 well plates (Roche, 05665817001) are composed of a top and bottom chamber separated by a microporous (8 μm) polycarbonate membrane. The membrane was coated with fibronectin (20 μg/mL), and 45,000 cells/well in serum free media with or without peptides were added to the top compartment. Media with chemoattractant (i.e., fully supplemented EBM-2) was added to the bottom compartment of the chamber and the plate was incubated at 37° C. for 20 hours. The sensors integrated on the bottom side of the membrane monitor and continuously record changes in impedance as the cells move through the membrane. The RT-CIM technology allows for easy quantification of cell migration by monitoring the cell index derived from the measured impedances. Assays were performed in at least two independent replicates and each replicate was performed using two experimental duplicates.

[10] = test system: microvascular endothelial cells (MEC); test: MEC adhesion assay; type: cell-based
Method: as §1

MDA-MB-231 xenograft = test: MDA-MB-231 orthotopic breast tumor xenograft; type: in vivo, SCID mice
Method: For primary tumor inhibition studies, 1−2×10^6 tumor cells were injected into 4-6 wk old female SCID mice. After the tumors reached a size of 100 mm^3 the animals were randomized into groups of 10 animals each. The animals were treated with vehicle, SP2012, SP2000, or SP2024. The peptides were administered subcutaneously daily. Dosing was continued for 3 or 4 weeks and tumor sizes were measured every 3 days using calipers. The tumor volume was estimated using the formula V=a^2b/2 where a and b are the smaller and larger diameters.
For the tumor xenograft assay, animals were housed and treated according to the approved animal protocol of the Institutional Care and Use Committee at Johns Hopkins Medical Institution (JHMI). Orthotopic breast tumors were initiated in SCID mice using MDA-MB-231 cells. 2×10^6 cells per 100 μL aliquot of single cell suspension were injected in the breast mannary fat pad. Tumors reached volumes of 75 mm^3 to 100 mm^3 in approximately 14-21 days. Mice were randomized and arranged in groups (8 mice per group) with similar tumor volumes (no statistical difference among averages) and treatment was commenced. Peptides were administered once per day intraperitoneally (i.p.) at doses of 10 mg/kg (subcutaneous delivery was also tested with certain peptides). Paclitaxel was administered at 5 mg/kg once a week, and to maintain the daily treatment regime PBS was administered on the non-treatment days. Tumors were measured every fourth day using calipers and the tumor volume was calculated using the formula V=ab^2/2, where a is the larger diameter and b is the smaller diameter.

[11] = test system: lymphatic endothelial cells (LEC); test: LEC migration assay; type: cell-based
Method: as §2

[12] = test system: MDA-MB-231 breast cancer cells; test: MDA-MB-231 wound healing type migration assay (Oris Pro); type: cell-based
Method: Breast cancer cells MDA-MB-231 are not suitable for the RT-CIM type experiments due to their thin elongated phenotype, thus the inhibition of migration was investigated using a wound healing type assay. This assay was performed using the Oris Pro Migration assay (Platypus Technologies, CMA 1.101). Briefly, 20,000-25,000 cells/well in full media were added to the 96 well plate containing stoppers to block migration of cells to the center region of the wells. Cells were allowed to adhere for 4 hours, after which the stoppers were removed. Cells were washed one time with PBS and fully supplemented media, with or without compound, was added to the wells. […], cells were stained with calcein AM (0.5 μg/mL) (Invitrogen, CA) and the cells that migrated to the center of the well were quantified by fluorescence intensity measured using a Victor V plate reader (Perkin Elmer) and also imaged using a Leica or Nikon microscope.

Molecule	laser-induced choroidal neovascularization [1]	IC50 (HUVEC [2])	Activity in Adhesion (HUVEC [2]; HUVEC)	area of retinal neovascularization in the Rho/VEGF model [3]	Activity in Proliferation (HUVEC [4]; HUVEC)	Activity in Migration (HUVEC [5])	Activity in Tube formation (HUVEC [6])	IC50 (HUVEC [4])	further results
CC[C@H](C)[C@H](NC(=O)[C@H](CC(N)=O)NC(=O)[C@@H](NC(=O)[C@H](Cc1ccccc1)NC(=O)[C@H](C)NC(=O)[C@H](Cc1ccccc1)NC(=O)[C@@H]1CCCN1C(=O)[C@H](CCSC)NC(=O)[C@@H](NC(=O)[C@H](CO)NC(=O)[C@H](Cc1ccccc1)NC(=O)[C@H](CCCNC(=N)N)NC(=O)[C@H](CCCNC(=N)N)NC(=O)[C@@H](N)CC(C)C)[C@@H](C)O)[C@@H](C)CC)C(=O)N[C@@H](CC(N)=O)C(=O)N[C@@H](CC(N)=O)C(=O)N[C@H](C(=O)N[C@H](C(=O)N[C@@H](CC(N)=O)C(=O)N[C@@H](Cc1ccccc1)C(N)=O)[C@@H](C)CC)C(C)C [SP2035]	inhibited laser-induced choroidal neovascularization	2.51 ± 0.88 µM	Yes	inhibited	Yes	Yes	Yes	–	–
CC[C@H](NC(=O)[C@H](Cc1ccccc1)NC(=O)[C@H](CCSC)NC(=O)[C@H](Cc1ccccc1)NC(=O)[C@@H]1CCCN1C(=O)[C@H](CCSC)NC(=O)[C@@H](NC(=O)[C@H](CO)NC(=O)[C@H](Cc1ccccc1)NC(=O)[C@H](CCCNC(=N)N)NC(=O)[C@H](CCCNC(=N)N)NC(=O)[C@@H](N)CC(C)C)[C@@H](C)O)C(=O)N[C@@H](CC(N)=O)C(=O)N[C@H](C(=O)N[C@@H](CC(N)=O)C(=O)N[C@@H](CC(N)=O)C(=O)N[C@H](C(=O)N[C@@H](CC)C(=O)N[C@@H](CC(N)=O)C(=O)N[C@@H](Cc1ccccc1)C(N)=O)C(C)C)[C@@H](C)CC [SP2012, LRRFSTMPFMFAbuNINNVAbuNF] (H-LRRFSTMPFMF[Abu]NINNV[Abu]NF-NH2; N-terminus assumed)	–	–	Yes	–	Yes	Yes	Yes	22 µM	inhibition of adhesion of MDA-MB-231 cells [7]: strong; Adhesion Inhibition (100 uM) (HUVEC [2]; HUVEC, 100 uM peptide): 93.14%; IC50 (HUVEC [4]; HUVEC, tables 5, 8-10 and text, read-out: IC50 ± 95% CI (μM), proliferation): 48.1 ± 23.1 µM; Migration Inhibition (5 uM) (HUVEC [5]; 5 uM peptide): 0% (5 uM); Migration Inhibition (50 uM) (HUVEC [5]; 50 uM peptide): 68%; Tube formation Inhibition (HUVEC [6]; (l0 uM) printed in the cell): Complete; inhibition of adhesion of LEC [8]: strong; inhibition of migration of MEC [9]: quite active; inhibition of adhesion of MEC [10]: quite active; suppression of tumor growth (MDA-MB-231 xenograft; MDA-MB-231 xenograft in mice, 10 mg/kg daily): tumor growth was inhibited; microvascular density (MDA-MB-231 xenograft; after completion of the treatment at 21 days): statistically different from one another; MDA-MB-231 xenograft inhibition (MDA-MB-231 xenograft; mice): Active; inhibition of migration of LEC [11]: strong; inhibition of migration of MDA-MB-231 cells [12]: strong; Migration of MDA-MB-231 cells into the restricted area ([12]; 50 μM and 5 μM treatments, 17 hours of incubation): statistically significant versus the control
LRRFSTAPFAFININNVINF-NH2 [SP2036]	inhibited laser-induced choroidal neovascularization	2.75 ± 1.22 µM	Yes	inhibited	Yes	Yes	Yes	9.97 ± 8.3 µM	inhibition of VEGF mediated angiogenesis ([3]; 0.1 μg administered directly into the eye): about 70%; loss of activity in proliferation compared to substitution of Methionine at position 10 (HUVEC [4]; HUVEC): 10 fold
